Measurements as given in patent US20220296774A1, “SUPRAMOLECULAR STRUCTURES” (Cellularevolution Limited, priority 2019, published 2022).
No end group written: not given here. C16 = N-terminal C16 lipid

How the values were obtained:
Type in all cases: cell-based
[1] = tested on: human stromal progenitor cells; experiment: Human stromal progenitor cell proliferation (Alamar Blue), lipopeptides as media supplement
Experimental: (§1) Cell proliferation can be evaluated via Alamar Blue assays, with cell number extrapolated from standard calibration curves using known number of cells for each experiment. Cells are incubated at 37° C. with resazurin reagent at 50 μM (Sigma Aldrich), prepared in 1:10 dilution using fresh culture medium, for […], after which 100 μl of culture supernatants (in triplicate) are sampled for fluorescence emission analysis at 590 nm using either a Fluoroskan Ascent fluorescent spectrophotometer or a Varioskan™ Lux (both from Thermo Scientific). The incubation time differ depending on the experiment and on the cell type. • 1.4 Collagen Deposit Assay
(§2) The effect of the different nanostructure on biocompatibility and bioactivity was investigated next. For this study, the lipopeptides were used as a media supplement, rather than coating. The bioactivity of the lipopeptides has been evaluated for three different cell types, namely human stromal progenitor cells, human adipose-derived mesenchymal stem cells (hASCs) and immortalized mouse myoblast cell line (C2C12). • 2.2.1 Effect on Human Stromal Progenitor Cells
(§3) The inventors hypothesised that the effect exerted by the same lipopeptide molecule can be different depending on the solvent in which the self-assembly is initiated. Lumican, Matrixyl and RGDS lipopeptides were investigated as supplements to culture media using stock solutions which were previously self-assembled either in water or in medium. Specifically, cells were cultured for 7 days and proliferation was assessed at day 3 and 7, whereas collagen deposition was analysed at day 7.

[2] = tested on: human stromal progenitor cells; experiment: Collagen deposited by human stromal progenitor cells (Sirius Red assay); conditions: for amount of collagen deposited, higher compared to PA self-assembled in medium: self-assembled in water
Experimental: (§4) The amount of collagen deposited by the cells is investigated using the Sirius Red assay (Jimenez et al., 1985). In specific, cells are fixed in 70% ice-cold ethanol and transferred to −80° C. for at least 10 min to ensure the complete fixation of the material. Subsequently, the ethanol solution is removed and each well was gently washed with distilled water. Cells are treated with Sirius-red/picric acid solution (Sigma Aldrich) and incubated overnight at 4° C. with gentle agitation. The following day, any unbound dye is removed and cells were gently rinsed with distilled water. Cells are then treated with 500 μl of 1M NaOH (Fisher Scientific) at room temperature for 10 min under agitation to disperse the solution and 100 μL aliquots of each sample were then transferred in triplicate to a 96 well plate. The total collagen is calculated by comparing the absorbance of the resulting samples at 490 nm, read using either a Multiskan Ascent™ or a Varioskan™ Lux (both from Thermo Fisher Scientific), to that of known standard concentrations of collagen. Each tested condition is performed in triplicate. • 1.5 Atomic Force Microscopy (AFM)
as §2, §3

[3] = tested on: human adipose-derived mesenchymal stem cells (hASCs); experiment: hASC proliferation (Alamar Blue); conditions: 50 μM; day 3 and 7; not significant
Experimental: as §1
The hASCs were also cultured with RGDS lipopeptide previously solubilised above its c.a.c. in water and then diluted in SFM at the final concentration of 50 μM (FIG. 4). This was to understand if the different self-assembled structures affected hASCs behaviour as found for human stromal progenitor cell.
(§5) Moreover, hASCs were also cultured with Lumican or Matrixyl lipopeptides previously solubilised above their c.a.c. in water and then diluted in SFM at the final concentration of 50 μM (FIG. 5).

[4] = tested on: human adipose-derived mesenchymal stem cells (hASCs); experiment: Collagen deposited by hASCs (Sirius Red assay); conditions: 7 days in culture, not significant
Experimental: as §4, §5

[5] = tested on: immortalized mouse myoblast cell line (C2C12); experiment: C2C12 proliferation (Alamar Blue); conditions: solubilised in medium; 25 and 50 μM; since day 3
Experimental: as §1
C2C12 were cultured up to 7 days in serum-free medium (SFM) supplemented either with Lumican or Matrixyl or RGDS lipopeptides. Each lipopeptide stock was prepared above its c.a.c. either in serum-free medium (SFM) or in water (H2O). C2C12 proliferation was evaluated using Alamar Blue assay at day 3 and 7. The amount of deposited collagen was quantified using the Sirius Red assay at day 7.

[6] = tested on: immortalized mouse myoblast cell line (C2C12); experiment: Collagen deposited by C2C12 (Sirius Red assay); conditions: 25 and 50 μM; day 7
Experimental: as §4, with “Each tested condition is performed in triplicate. • 1.5 Atomic Force Microscopy (AFM)” left out
C2C12 were cultured up to 7 days in serum-free medium (SFM) supplemented either with Lumican or Matrixyl or RGDS lipopeptides. […] C2C12 proliferation was evaluated using Alamar Blue assay at day 3 and 7. The amount of deposited collagen was quantified using the Sirius Red assay at day 7.

With C16-YEALRVANEVTLN [Lumican lipopeptide] the “cell proliferation compared to non-supplemented SFM” value ([1]; self-assembled in medium, 12 and 25 μM) was “slightly increased cell proliferation only up to day 3”, the “cell proliferation compared to non-supplemented serum free medium (SFM)” value ([1]; self-assembled in water, supplemented at 25 μM and 12 μM, day 3 and 7) was “significantly increased cell proliferation” and the “collagen deposition compared to the control (SFM)” value ([2]; independently of the solvent (water or medium) of self-assembly, 7 days) was “significantly increased collagen deposition”. For the same substance, the “amount of collagen deposited, higher compared to PA self-assembled in medium” value ([2]; 12 μM, 7 days) was 15%, the “amount of collagen deposited, higher compared to PA self-assembled in medium” value ([2]; 25 μM, 7 days) was “≈ 75%” and the “cell proliferation when solubilised in medium rather than water” value [3] was “slightly increase cell proliferation”. For the same substance, the “collagen deposited by hASCs” value ([4]; solubilised in water) was “slightly increased the collagen deposited”, the cell proliferation [5] was “significantly increased cell proliferation” and the “collagen deposited when solubilised in SFM rather than water” value [6] was “significantly increased”.
C16-KTTKS [Matrixyl lipopeptide] was tested, and the “cell viability compared to the control” value ([1]; self-assembled in SFM, day 7, both conditions) was “dramatically decreased cell viability”, the “amount of deposited collagen compared to the control” value ([2]; self-assembled in SFM, day 7) was “significantly increased the amount of deposited collagen” and the “amount of deposited collagen, higher compared to lipopeptide self-assembled in water” value ([2]; self-assembled in SFM, day 7) was 55%. The “cell proliferation when solubilised in medium rather than water” value [3] was “slightly increase cell proliferation”, the “collagen deposited by hASCs” value ([4]; solubilised in SFM) was “slightly increased the collagen deposited” and the cell proliferation [5] was “significantly increased”. For the same substance, the “collagen deposited when solubilised in SFM rather than water” value [6] was “significantly increased”.
